US20180021270A1, “METHODS FOR THE TREATMENT OF CANCER USING COENZYME Q10 IN COMBINATION WITH IMMUNE CHECKPOINT MODULATORS” (Berg LLC, priority 2016, published 2018)

Columns and labels:
[1] = system: T cell surface proteins in buffy coat; test: Proteomic analysis of buffy coat samples from cancer patients administered Coenzyme Q10; format: in vivo, human; settings: patients with solid tumors, intravenous 4% Coenzyme Q10 nanosuspension; start vs end of treatment
Description: The ability of Coenzyme Q10 to modulate immune function in cancer patients was investigated by characterizing the molecular signature in buffy coats of patients administered Coenzyme Q10 for the treatment of solid tumors. A sterile Coenzyme Q10 (Ubidecarenone, USP) nanosuspension was administered intravenously to patients with solid tumors. Coenzyme Q10 was evaluated both as a monotherapy and in combination with standard chemotherapeutic agents (e.g. gemcitabine, 5-fluorouracil and docetaxel). The Coenzyme Q10 was provided as a 4% coenzyme Q10 nanosuspension formulation as described in WO 2011/112900, the entire contents of which are expressly incorporated herein by reference.
The effect of Coenzyme Q10 treatments on protein expression in immune cells within the buffy coat was evaluated. Furthermore, it was determined whether the proteins identified were known to be on the surface of T cells. To complete this analysis, buffy coat samples were subjected to shot gun global proteomic analysis, and a comprehensive list of proteins were generated for samples obtained from 25 patients being treated for solid tumors with Coenzyme Q10 as described above.
For proteomic analysis, data from two publically available T cell proteomic studies were combined. See Graessel A. et al., 2015, Molecular and Cellular Proteomics 14: 2085-2102; and Loyet K. M. et al., 2005, Proteome Research 4: 400, the entire contents of each of which are expressly incorporated herein by reference. Both studies defined the set of proteins on the surface of naïve and activated T cells to generate a working list of proteins potentially found on the T cell surface. This list (>600 proteins) was compared to the total proteome of the buffy coat (>2000 proteins) from twenty-five patients treated with Coenzyme Q10 as monotherapy.
A total of 62 common proteins shared between T cell surface proteome and the buffy coat proteome were identified. The relative change in protein levels (on the y-axis) represents the slope of the line derived from the linear regression of the level of each protein at the start of Coenzyme Q10 treatment versus the level at the end of Coenzyme Q10 treatment. FIG. 1 provides a schematic of the plot slope of linear regression representing the change in protein expression over time.

[2] = system: PD-L1 protein on the surface of ovarian cancer cells (SKOV-3); test: Flow cytometry of PD-L1 protein on the cancer cell surface; format: cell-based, human; settings: SKOV-3, 72 hours after treatment
Description: (§1) Flow cytometry analysis with a fluorescent probe for PD-L1 was used to determine the expression of PD-L1 protein on the surface of various human cancer cell lines. The cells were treated with 100 μM Coenzyme Q10, or the IC50 of Coenzyme Q10 for each cell line. […] The increased PD-L1 levels observed in breast cancer cells in response to Coenzyme Q10 treatment were not due to changes in cell populations.
(§2) Human pancreatic (MIA PaCa-2), ovarian (SKOV-3), and lung (A549) cancer cell lines treated with Coenzyme Q10 were also analyzed by flow cytometry to determine PD-L1 protein expression on the cancer cell surface.

[3] = system: PD-L1 protein on the surface of lung cancer cells (A549); test: as above; format: cell-based, human; settings: A549, 72 hours after treatment
Description: as §1, §2

[4] = system: PD-L1 protein on the surface of pancreatic cancer cells (MIA PaCa-2); test: as above; format: cell-based, human; settings: MIA PaCa-2, 72 hours after treatment
Description: as §1, §2

[5] = system: PD-L1 protein on the surface of breast cancer cells (MDA-MB231); test: as above; format: cell-based, human
Description: as §1

[6] = system: murine Pan02 pancreatic cancer cells; test: Pan02 pancreatic tumor growth in C57BL/6 mice; format: in vivo, mouse; settings: Day 21
Description: C57BL/6 mice were implanted with murine Pan02 pancreatic cancer cells and treated with different doses of Coenzyme Q10 to evaluate the effects of Coenzyme Q10 on tumor growth. C57B1/6 female mice were inoculated with 3×10^7 Pan02 cells. When tumors reached a mean volume of 100 mm^3, animals were randomized into four groups and treated with vehicle control or Coenzyme Q10 (25, 50 or 100 mg/kg) by intraperitoneal (i.p.) injection twice daily for 21 days. Tumor volume was measured twice per week.

murine Balb/c PBMCs = test: Frequency of PD-1 expressing cells within murine PBMCs; format: cell-based, mouse; settings: 0-800 μM, 24 hours, dose dependent, unstimulated and PHA-stimulated cells
Description: The frequency of PD-1 expressing cells within PHA-stimulated or unstimulated murine Balb/c PBMCs was also evaluated. Cells were concurrently treated with Coenzyme Q10 (0, 12.5, 50, 200, 400 or 800 μM) for 24 hours and evaluated by flow cytometry using surface marker antibody for αCD3 and viability stains Annexin V/7AAD. Viable cells were identified by plotting Annexin V vs. 7 AAD, and gated viable cells were subjected to CD3 vs. PD-1 staining. Two experiments using two different pools of Balb/c PBMCs and one experiment using C57B1/6 PBMCs were conducted.

[7] = system: PD-1 on CD3 positive T cells within Balb/c PBMCs; test: PD-1 surface expression on murine CD3 positive T cells; format: cell-based, mouse; settings: 0-800 μM, 24 hours, mean fluorescence intensity
Description: PD-1 surface expression on CD3 positive T cells within PHA stimulated or unstimulated Balb/c PBMCs was also evaluated. Cells were treated with Coenzyme Q10 (0, 12.5, 50, 200, 400 or 800 μM) for 24 hours and PD-1 expression was determined by gating live CD3 positive T cells. Mean fluorescence intensity values were evaluated in histogram plots for PD-1. Two experiments using two different pools of Balb/c PBMCs and one experiment using C57B1/6 PBMCs were conducted.

SMILES: COC1=C(OC)C(=O)C(C/C=C(\C)CC/C=C(\C)CC/C=C(\C)CC/C=C(\C)CC/C=C(\C)CC/C=C(\C)CC/C=C(\C)CC/C=C(\C)CC/C=C(\C)CCC=C(C)C)=C(C)C1=O [Coenzyme Q10]
- Expression of CD8B in buffy coat [1]: downregulated
- Expression of CD247 in buffy coat [1]: downregulated
- Expression of CFL1 in buffy coat [1]: upregulated
- Expression of S100A8 in buffy coat [1]: upregulated
- Amount of PD-L1 protein on the cell surface [2]: small but significant increase
- Percentage of cells having PD-L1 protein on their surface [2]: did not significantly change
- Amount of PD-L1 on the cell surface [3]: did not significantly change
- Percentage of cells having PD-L1 protein on their surface [3]: did not significantly change
- Amount of PD-L1 protein on the cell surface [4]: significantly increased
- Percentage of cells having PD-L1 protein on their surface [4]: significantly increased
- Amount of PD-L1 protein on the cell surface ([5]; MDA-MB231, 3 hours after treatment): significantly increased
- Amount of PD-L1 protein on the cell surface, treated vs untreated ([5]; MDA-MB231, 6 hours after treatment): no significant difference
- Amount of PD-L1 protein on the cell surface ([5]; MDA-MB231, 72 hours after treatment): significantly increase
- Percentage of cells having PD-L1 protein on their surface ([5]; MDA-MB231, 72 hours after treatment, 100 μM or IC50 of Coenzyme Q10): did not significantly change
- Cell populations, treated vs untreated cells ([5]; MDA-MB231, flow cytometry): no changes
- Percentage of Tumor Growth Inhibition ([6]; 25 mg/kg i.p. twice daily, p=0.2583 to control): 7%
- Percentage of Tumor Growth Inhibition ([6]; 50 mg/kg i.p. twice daily, p=0.1255 to control): 19%
- Percentage of Tumor Growth Inhibition ([6]; 100 mg/kg i.p. twice daily, p=0.0529 to control): 26%
- Frequency of PD-1 negative CD3 positive T cells (murine Balb/c PBMCs): increased
- PD-1 expression of PD-1 negative gated CD3+ T cells [7]: does not affect
- PD-1 levels on PD-1 high expressing gated CD3+ T cells [7]: increased
